In data set [1] the test system is ERK1/2/Nrf2/HO-1 pathway. On the set-up: method as in Lai et al. (2020). Particulars: by modulating the ERK1/2/Nrf2/HO-1 pathway; ref Lai et al. (2020); cited from earlier work.
Data set [2] in a line: in vivo. Particulars: male, Sprague-Dawley, rat, po; for Tmax: rat plasma, mean ± S.D., n = 6.
Description: (§1) Additionally, 18 rats were orally administered PA, PMRP, or ATR once, respectively (6 rats in each group). The doses were 4.32 g/kg for PA, 2.16 g/kg for PMRP or ATR. The whole blood samples were collected at different time points.
(§2) The components of PA were analyzed by HPLC-MS. The samples were separated on a ZORBAX StableBond C18 reversed-phase column (2.1 × 50 mm, 1.8 μm) (Agilent Technologies Co., CA, United States). The autosampler was set at 20 C, and gradient elution was performed with 0.1% formic acid as solvent A and acetonitrile as solvent B. The gradient program was as follows: 0–10 min, 88%–40% A; 10–12 min, 40%–1% A; and 12–15 min, 1% A. The flow rate was set at 0.3 ml min^−1, and the injection volume was 4 μL. The total run time was 15 min for each sample.
(§3) GC-MS analysis was conducted on a 7890A series gas chromatograph coupled to a Model 7,693 autosampler and Model 5975C Inert XL EI MSD with Triple-Axis Detector (Thermo Fisher Scientific). The carrier gas was 99.99% high-purity helium at a flow rate of 1.2 ml/min. Samples were separated on a TG-5MS column (60 × 0.25 mm and 0.25 μm film thickness). The sample volume was 1 μL with a split ratio of 5:1. The oven temperature program was initially set at 100°C for 1 min, then ramped at 10°C/min to 180°C and held for 1 min; ramped at 5°C/min to 210°C and held for 1 min; and ramped at 10°C/min to 260°C and held for 5 min. The total run time was 27 min. The injection port and detector temperatures were 280°C and 300°C, respectively. Electrospray ionization was performed at 70 eV. Selective ion monitoring was set for quantitation with a dwell time of 100 m/ion.
(§4) Male rats (n = 18) were fasted but had free access to water for 12 h prior to administration of PA, PMRP, and ATR (6 rats in each group). Blood samples were collected from the posterior orbital venous plexus of rats before dosing (time 0) and 5, 10, and 30 min and 1, 2, 4, 8, 16, and 24 h after dosing. The samples were immediately centrifuged at 4,500 rpm for 10 min and the separated plasma samples were stored at −80°C until analysis.
Data set [3] is described as follows: Pharmacokinetics in rat plasma after oral administration of PA, PMRP or ATR (HPLC-MS and GC-MS). Particulars: for Tmax: rat plasma, mean ± S.D., n = 6; for Plasma concentration after oral PA compared to the level after PMRP or ATR: rats, PA 4.32 g/kg vs PMRP or ATR 2.16 g/kg.
Description: as §1, §2, §3, §4
For data set [4] the following is noted: male, Sprague-Dawley, rat, in vivo, po, 4.32 g/kg.
Description: as §1, §2, §3, §4
Data set [5] concerns neurotransmitter levels in the cerebral cortex of scopolamine-treated mice. The data set can be described thus: HPLC-MS analysis of neurotransmitter content in mouse cortical tissue. The format is in vivo, Kunming mice. Particulars: scopolamine injection 4 mg/kg i.p. vs control mice.
Data set [6] relates to P90RSK and PSD95 in the hippocampus. The data set can be described thus: Immunohistochemistry of P90RSK and PSD95 in the hippocampus. The format is in vivo, Kunming mice. Particulars: scopolamine vs control mice. The protocol:
The brain was removed and immediately fixed in 4% paraformaldehyde in PBS. […] After quenching endogenous peroxidase and blocking with normal goat serum, the sections were incubated overnight at 4°C with antibodies against P90RSK and PSD95 (both at 1:5,000). The sections were washed with PBS and incubated with secondary antibodies for 2 h at 37°C, and then stained with 3,3′-diaminobenzidine in chromogen solution; they were then counterstained with hematoxylin, dehydrated in ethanol, cleared in xylene, and mounted with Cytoseal (Thermo Fisher Scientific). P90RSK and PSD95 immunoreactivity was measured using Image Pro Plus v6.0 software (Media Cybernetics, Rockville, MD, United States). Brown staining on the cell membrane or in the cytoplasm was represented positive staining, with the staining intensity reflecting the expression levels of P90RSK and PSD95 proteins.

For data set [7], the system named is BDNF, TrkB, ERK, p-ERK, CREB, and p-CREB proteins in the hippocampus. The data set can be described thus: Western blot of BDNF/TrkB/ERK/CREB signaling axis components in the hippocampus. Particulars: scopolamine treatment vs control mice. (In general: In western blotting, separated proteins are transferred to a membrane and probed.)
Description: The mice were randomly divided into the following eight groups (n = 12 per group): 1) control (normal feeding); 2) model [scopolamine, 4 mg kg^−1⋅day^−1 by intraperitoneal injection (i.p.)]; 3) PAL [scopolamine, 4 mg kg^−1⋅day^−1 i. p. + PA, 1.56 g kg^−1⋅day^−1 by intragastric administration (i.g.)]; 4) PAH (scopolamine, 4 mg kg^−1⋅day^−1 i. p. + PA, 6.24 g kg^−1⋅day^−1 i. g.); 5) PL (scopolamine, 4 mg kg^−1⋅day^−1 i. p. + PMRP, 0.78 g kg^−1⋅day^−1 i. g.); 6) PH (scopolamine, 4 mg kg^−1⋅day^−1 i. p. + PMRP 3.12 g kg^−1⋅day^−1 i. g.); 7) AL (scopolamine, 4 mg kg^−1⋅day^−1 i. p.+ ATR, 0.78 g kg^−1⋅day^−1 i. g.); and 8) AH (scopolamine, 4 mg kg^−1⋅day^−1 i. p. + ATR, 3.12 g kg^−1⋅day^−1 i. g.). […]
Three mice per group were deeply anesthetized with chloral hydrate (320 mg/kg i. p.) 60 min after the behavioral test and perfused through the ascending aorta with PBS. […] The hippocampus tissue was lysed in radioimmunoprecipitation assay buffer containing protease and phosphatase inhibitors; the protein concentration of the lysate was determined with the Bradford assay. […] After three washes with washing buffer and incubation with secondary antibody (1:3,000) for 2 h, protein bands were detected with SuperSignal West Pico Chemiluminescent Substrate (Solarbio, Beijing, China) and the signal intensity of target protein bands was normalized to that of the loading control (actin).
The test system of data set [8] is scopolamine-treated mice. The data set can be described thus: Morris water maze test in scopolamine-treated mice. Particulars: scopolamine 4 mg/kg i.p. (dementia model); starting from day 3; p < 0.001.
Description: The mice were randomly divided into the following eight groups (n = 12 per group): 1) control (normal feeding); 2) model [scopolamine, 4 mg kg^−1⋅day^−1 by intraperitoneal injection (i.p.)]; 3) PAL [scopolamine, 4 mg kg^−1⋅day^−1 i. p. + PA, 1.56 g kg^−1⋅day^−1 by intragastric administration (i.g.)]; 4) PAH (scopolamine, 4 mg kg^−1⋅day^−1 i. p. + PA, 6.24 g kg^−1⋅day^−1 i. g.); 5) PL (scopolamine, 4 mg kg^−1⋅day^−1 i. p. + PMRP, 0.78 g kg^−1⋅day^−1 i. g.); 6) PH (scopolamine, 4 mg kg^−1⋅day^−1 i. p. + PMRP 3.12 g kg^−1⋅day^−1 i. g.); 7) AL (scopolamine, 4 mg kg^−1⋅day^−1 i. p.+ ATR, 0.78 g kg^−1⋅day^−1 i. g.); and 8) AH (scopolamine, 4 mg kg^−1⋅day^−1 i. p. + ATR, 3.12 g kg^−1⋅day^−1 i. g.). Mice in each group were orally administered PA, PMRP, or ATR every day for 30 days; after the last gavage, scopolamine was intraperitoneally injected and the Morris water maze experiment was conducted 40 min later for 6 days.
Spatial memory was assessed with the Morris water maze test as previously described [Lan et al. (2012)], with slight modifications. […] Each mouse was tested twice a day for 5 days and the latency to reach the platform was recorded. […] The time that the mouse spent in the target quadrant (ie, where the platform was previously hidden) and the number of times it crossed the platform were measured. […]
For data set [9] the following is noted: Chen et al., cited from earlier work.
Where [10] appears, read: 2.16 g/kg, oral PMRP extract 2.16 g/kg once.
[11] abbreviates: 4.32 g/kg, oral PA extract 4.32 g/kg once.
Where [12] appears, read: oral PMRP extract 2.16 g/kg once.
The mark [13] stands for this setting: male, Sprague-Dawley, rat, plasma, po, 2.16 g/kg.
Where [14] appears, read: male, Sprague-Dawley, rat, plasma, po, 2.16 g/kg, Tmax, oral ATR extract 2.16 g/kg once.
The mark [15] stands for this setting: male, Sprague-Dawley, rat, plasma, po, 4.32 g/kg.
[16] abbreviates: male, Sprague-Dawley, rat, plasma, po, 4.32 g/kg, Tmax, oral PA extract 4.32 g/kg once.
The mark [17] stands for this setting: oral ATR extract 2.16 g/kg once.

Each structure is given as a SMILES string. Counter-ions that a name gives are not always drawn.

One may read the AUC(0-inf) as the area under the concentration-time curve extrapolated to infinity. Low values mean low exposure, high ones high exposure. A word on the AUC(0-t): it is the area under the concentration-time curve up to a stated or last time point. One may read the Cmax as the highest concentration seen after dosing. In general, half-life refers to the time needed for the level to fall by half in the phase considered. Low values mean fast loss, high ones slow loss.

In the case of `Cc1cc(O)c2c(c1)C(=O)c1cc(O)cc(O)c1C2=O` [emodin], in data set [1], the “Effect on synaptic impairment” value is recorded as “protected against synaptic impairment”. Further, the AUC(0-inf) worked out at 7400 ng·h/mL in data set [2] (2.16 g/kg) and 4160 ng·h/mL in data set [2] (4.32 g/kg). For the same compound, the AUC(0-t) was 847 ± 802 ng·h/mL in data set [2] (2.16 g/kg) and 1810 ± 934 ng·h/mL in data set [2] (4.32 g/kg). Further, the Cmax in data set [2] (2.16 g/kg) turned out to be 370 ± 288 ng/mL; in data set [2] (4.32 g/kg), 363 ± 122 ng/mL. For the same compound, the figures for the half-life in [2] (2.16 g/kg) and in data set [2] (4.32 g/kg) were 3.7 ± 6.83 h and 14 ± 11.8 h, respectively. For the same compound, the Tmax in data set [2] (setting [10]) came out at 2.76 h; in data set [2] (setting [11]), 0.47 h; in [3] (oral PA extract 4.32 g/kg once), 0.472 ± 0.748 h; in [3] (setting [12]) it was 2.764 ± 4.056 h.
For the compound `C/C=C\c1cc(OC)c(OC)cc1OC` [β-asarone], the AUC(0-inf) in data set [3] (setting [13]) came to 1050 ng·h/mL; in data set [3] (setting [15]), 744 ± 620 ng·h/mL. For the same compound, the AUC(0-t) came to 603 ± 281 ng·h/mL in data set [3] (setting [13]) and 439 ± 209 ng·h/mL in [3] (setting [15]). Also, in [3] (setting [13]), the highest level (Cmax) was 49.8 ± 16 ng/mL. Further, the half-life in [3] (setting [13]) was 10.7 ± 6.94 h; in data set [3] (setting [15]), 14 ± 14.8 h. The Tmax came out at 4.78 h in data set [3] (setting [14]), 0.35 h in [3] (setting [16]), 4.778 ± 3.777 h in data set [3] (setting [17]) and 0.347 ± 0.351 h in data set [3] (oral PA extract 4.32 g/kg once). Further, in data set [3], the “Plasma concentration after oral PA compared to the level after PMRP or ATR” value was “similar”.
On to `C/C=C/c1ccc(OC)c(OC)c1` [cis-methyl isoeugenol], for which the results for the area under the curve AUC(0-inf) in data set [3] (setting [13]) and in data set [3] (setting [15]) were 123 ± 30 ng·h/mL and 129 ± 45.5 ng·h/mL, respectively. The AUC(0-t) in data set [3] (setting [13]) is 93.8 ± 20.4 ng·h/mL; in data set [3] (setting [15]), 118 ± 45.2 ng·h/mL. Besides, the Cmax in [3] (setting [13]) stood at 19.4 ± 18.8 ng/mL; in data set [3] (setting [15]) it was 24.1 ± 4.99 ng/mL. Further, the half-life is 7.49 ± 2.55 h in data set [3] (setting [13]) and 8.1 ± 2.69 h in data set [3] (setting [15]). Further, the Tmax turned out to be 3.51 h in [3] (setting [14]), 1.58 h in data set [3] (setting [16]), 3.514 ± 3.753 h in data set [3] (setting [17]) and 1.583 ± 3.163 h in data set [3] (oral PA extract 4.32 g/kg once). Moreover, the “Plasma concentration after oral PA compared to the level after PMRP or ATR” value in data set [3] was “similar”.
For `O=C(O)c1cc(O)c(O)c(O)c1` [gallic acid], the T1/2 in [4] turned out to be 19.532 ± 13.369 h. Moreover, the results for the AUC(0-inf) in data set [2] (2.16 g/kg) and in data set [2] (4.32 g/kg) were 2700 ng·h/mL and 1530 ng·h/mL, respectively. Moreover, the AUC(0-t) in [2] (2.16 g/kg) stood at 2460 ng·h/mL; in [2] (4.32 g/kg), 831 ± 497 ng·h/mL. Moreover, the Cmax in [2] (2.16 g/kg) was 216 ± 47.9 ng/mL; in data set [2] (4.32 g/kg) it was 246 ± 244 ng/mL. Moreover, the half-life in data set [2] (2.16 g/kg) is 6.98 ± 2.15 h. The Tmax was 0.69 h in [2] (setting [10]), 0.44 h in data set [2] (setting [11]), 0.444 ± 0.763 h in [3] (oral PA extract 4.32 g/kg once) and 0.694 ± 0.356 h in data set [3] (setting [12]). In data set [3], the “Plasma concentration after oral PA compared to the level after PMRP or ATR” value was “similar”.
In the case of `CN1[C@@H]2C[C@@H](OC(=O)[C@H](CO)c3ccccc3)C[C@H]1[C@@H]1O[C@@H]12` [Scopolamine, Scopolamine Hydrobromide], the “Concentrations of ACh, 5-HT, NE, Epi, Glu and GABA in the cortex” value in data set [5] is given as “reduced”. In addition, the “Immunoreactivity of P90RSK and PSD95 in the hippocampus” value in data set [6] was “reduced”. Also, in data set [7], the “Levels of BDNF, TrkB, ERK, p-ERK, CREB and p-CREB proteins in the hippocampus” value is given as “reduced”. Besides, in data set [8], the “Time to find the platform vs controls” value was “significantly longer”.
In the case of `C/C=C/c1cc(OC)c(OC)cc1OC` [α-asarone], the “Effect on learning and memory deficits” value in data set [9] (ref Limón et al., 2009, Shin et al., 2014, Li et al., 2019, 2020) was “improved learning and memory deficits”. Further, the results for the total exposure AUC(0-inf) in [3] (setting [13]) and in [3] (setting [15]) were 1040 ng·h/mL and 1240 ng·h/mL, respectively. The exposure AUC(0-t) in data set [3] (setting [13]) came out at 600 ± 360 ng·h/mL; in data set [3] (setting [15]), 1020 ng·h/mL. Also, the Cmax in data set [3] (setting [13]) was 73.5 ± 25.9 ng/mL; in data set [3] (setting [15]), 101 ± 30.3 ng/mL. In addition, the half-life was 11.8 ± 12.6 h in [3] (setting [13]) and 8.26 ± 2.7 h in [3] (setting [15]). Further, the Tmax in [3] (setting [14]) worked out at 3.54 h; in data set [3] (setting [16]), 0.88 h; in data set [3] (setting [17]) it was 3.542 ± 3.736 h; in data set [3] (oral PA extract 4.32 g/kg once), 0.875 ± 0.699 h. In [3], the “Plasma concentration after oral PA compared to the level after PMRP or ATR” value is “increased”.
Consider `COc1cc(OC)c(OC)cc1C=O` [asarylaldehyde], for which the AUC(0-inf) in data set [2] (2.16 g/kg) worked out at 1550 ng·h/mL; in data set [2] (4.32 g/kg), 1970 ± 766 ng·h/mL. In addition, the AUC(0-t) in [2] (2.16 g/kg) was determined as 1440 ng·h/mL; in data set [2] (4.32 g/kg), 1710 ± 503 ng·h/mL. Besides, the Cmax in data set [2] (2.16 g/kg) was 119 ± 52.2 ng/mL; in [2] (4.32 g/kg) it was 200 ± 45 ng/mL. In addition, the values for the half-life in data set [2] (2.16 g/kg) and in data set [2] (4.32 g/kg) were 7.18 ± 1.23 h and 7.38 ± 2.94 h, respectively. Moreover, the Tmax in data set [2] (2.16 g/kg, oral ATR extract 2.16 g/kg once) was 2.21 h; in data set [2] (setting [11]) it was 0.43 h; in [3] (setting [17]) it was 2.208 ± 3.217 h; in [3] (oral PA extract 4.32 g/kg once), 0.431 ± 0.442 h. Also, in data set [3], the “Plasma concentration after oral PA compared to the level after PMRP or ATR” value is on record as “increased”.
`OCC1OC(Oc2c(O)cc(O)cc2C=Cc2ccc(O)cc2)C(O)C(O)C1O` [THSG, 2,3,5,4′-Tetrahydroxystilbene-2-O-β-D-glucoside]: the Effect on memory result in [9] (by modulating ERK1/2 and CREB activation and increasing BDNF and PSD95 levels, ref Hou et al., 2011, Wang et al., Zhou et al., 2012, Shen et al., 2015, 2016) was “enhanced memory”. The AUC(0-inf) in [3] (setting [13]) worked out at 102 ± 49.7 ng·h/mL; in data set [3] (setting [15]), 1630 ng·h/mL. The exposure AUC(0-t) amounted to 102 ± 49.4 ng·h/mL in [3] (setting [13]) and 1520 ng·h/mL in data set [3] (setting [15]). In addition, the Cmax turned out to be 147 ± 105 ng/mL in data set [3] (setting [13]) and 708 ± 281 ng/mL in [3] (setting [15]). Besides, the half-life in data set [3] (setting [13]) is 0.17 ± 0.136 h; in [3] (setting [15]), 3.01 ± 3.36 h. Besides, the Tmax in [3] (male, Sprague-Dawley, rat, plasma, po, 2.16 g/kg, Tmax, oral PMRP extract 2.16 g/kg once) was found to be 0.39 h; in data set [3] (setting [16]) it was 0.81 h; in data set [3] (oral PA extract 4.32 g/kg once, listed as 2,3,5,4′-Tetrahydroxystilbene-2-O-β-glucoside) it was 0.806 ± 0.695 h; in data set [3] (oral PMRP extract 2.16 g/kg once, listed as 2,3,5,4′-Tetrahydroxystilbene-2-O-β-glucoside), 0.389 ± 0.356 h. For the same compound, the “Plasma concentration after oral PA compared to the level after PMRP or ATR” value in data set [3] is “increased”.

Values taken from article PMC8360279, “Combination of Polygoni Multiflori Radix Praeparata and Acori Tatarinowii Rhizoma Alleviates Learning and Memory Impairment in Scopolamine-Treated Mice by Regulating Synaptic-Related Proteins” (Frontiers in Pharmacology, 2021).
